From patent publication US20200247808A1, “Heterocyclic Tec-Family Kinase Inhibitors” (GB005, Inc., priority 2015, published 2020)
Entries after “also recorded” stand apart in the source; their conditions may differ. Read-outs that look alike come from different tables or passages of the source.

Experiments:
[1] = Mouse plasma pharmacokinetics; assay type: in vivo, mouse (CD-1); conditions: male, CD-1, mouse, mice; for AUC / Cmax: free base; for bioavailability: oral 10 mg/kg vs intravenous 3 mg/kg
Procedure: Plasma pharmacokinetic studies were conducted in CD1 mice to compare the plasma exposure following oral and intravenous administration of the free-base form of each compound to mice and to calculate bioavailability. Male CD-1 mice (25-30 g on delivery; Charles River) were used for mouse PK studies. The mice were housed 3 per cage in a room under controlled conditions of temperature ([…]) and humidity (40-70%), with a 12 h dark/light cycle. The animals were acclimated for a minimum of 3 days prior to use and received standard rodent chow (Charles River) and municipal tap water ad libitum. Nine animals were used per study, they were dosed PO or IV and bled from the mandibular vein, 2 to 3 times per animal at the following time points; pre dose, 15 and 30 min, 1, 2, 3, 5, 7 and 24 h (0.1 mL whole blood /time point; composite PK). Blood was collected into microvette K3E tubes ([…]) at RT and then centrifuged at 5,000 RPM for 2 min at 4° C. in order to separate plasma. Isolated plasma (0.015 mL/time point) was pipetted into 96 well plates (Canadian Life Science) which were stored at minus 20° C. until analysis (2 duplicate plates per study).
Concentrations of compound in rodent plasma samples were determined by LC-MS-MS. Two standard curves containing 8 points each were prepared by spiking in methanol or plasma with a solution containing the test article at a defined concentration. The range of final compound concentration in the standard curve was 0 to 1 μg/mL. Three sets of quality control (QC) samples in plasma at low, medium and high concentration within the standard curve range were also prepared. For analysis, the compound was extracted using protein precipitation extraction procedure. Briefly, a three-fold volume of methanol containing an internal standard was added to the plasma and standard curve solution samples and then incubated at 4° C. for 5 minutes. The plates were centrifuged for 30 minutes at 4° C. at 4000 rpm and the resulting supernatant was transferred to a 96-well propylene plates and sealed with cover to avoid sample evaporation. Ten μL aliquots of extracted samples were injected using a 96-well plate autosampler held at 4° C. onto a ACE C18 50×4.6 mm, 3 um HPLC column held at 30° C. Plasma derived parent compound was eluted using the following conditions: pump flow rate was set at 1 mL/min for a five minutes chromatographic method using a 3 min gradient elution from 20% solvent A (0.1% formic acid in water) and 80% solvent B (0.1% Formic Acid in Methanol) to 10% solvent A and 90% solvent B. The method was followed by 1 min column wash at 95% solvent B and 1 min column re-equilibration back to 80% solvent B. Under these conditions the compound was eluted after 1.8 minutes. For LC-MS-MS compound detection, the curtain gas was set at 10, collision gas was set at 8, ion spray voltage was set at 4500, temperature was set at 500, ion source gas 1 was set at 40 and ion source gas 2 was set at 60. Using a positive ionization mode, the MRM transition monitored was set at […]. Under these conditions, standard curves were linear up to 2000 ng/mL, the lower limit of quantification was generally at 10 ng/mL.
The area under the curve (AUCtot and AUClast), the maximum plasma concentration (Cmax) and time (Tmax), and terminal half life (T1/2), clearance and volume of distribution were calculated by regression analysis using Kinetica version 5.0 (Thermo Fisher Scientific) using a Non-Compartmental Extravascular/IV Bolus analysis model.

[2] = test system: TMD-8 xenograft B-cell lymphoma; experiment: Antitumor activity study, TMD-8 xenograft; assay type: in vivo, mouse (Scid); conditions: Scid mice, once daily oral gavage from d21
Procedure: Female C.B-17/IcrHsd-PrkdcsidLystbg-J mice (Scid mice; Harlan, 6-8 wk on delivery) were used for these studies. The mice were housed 4 per cage in a ventilated rack in a room under controlled conditions of temperature (20-25° C.) and humidity (40-70%), with a 12 h dark/light cycle. The animals were fed ad libitum with irradiated rodent diet (Harlan) and received autoclaved tap water. The cage, bedding and enrichment materials inside the home cage were autoclaved prior to use and all cage and animal manipulations were carried out inside a sterile laminar flow hood. Animals were acclimated for 1 week prior to cell injection.
TMD-8 human activated B cell diffuse large B cell lymphoma cells were grown in HyClone RPMI supplemented with 10% FBS (Fisher)/1% Penicillin/Streptomycin (HyClone) at 37° C., 5% CO2 and then prepared for injection. […]
When the mean tumor volume reached 200-300 mm^3 (d21) mice were randomized into groups of 10 based on tumor size and treatment was initiated. […] General condition and BW of all mice was assessed daily and tumor measurements collected twice per week (Mon and Thur). […]
The long (a) and short (b) axis of tumors were measured with electronic calipers (Mitutoyo) and tumor volume (mm^3) was calculated (a*b^2/2) and temporal changes in tumor volume and body weight were assessed day 21 (d21) to […].

EGFR = EGFR (Homo sapiens, UniProt P00533); experiment: EGFR kinase inhibition, KinaseProfiler radiometric protein kinase assay (Eurofins); assay type: biochemical; set-up: purchased Eurofins Pharma Discovery Services UK Limited (contract assay, KinaseProfiler); conditions: 40 min room temperature
Procedure: In vitro potency of selected compound was defined against human BTK, EGFR, and ErbB2 kinases using Kinase Profiler radiometric protein kinase assays performed at Eurofins Pharma Discovery Services UK Limited.
Each kinase is diluted in buffer and all compounds were prepared to 50x final assay concentration in 100% DMSO. This working stock of the compound was added to the assay well as the first component in the reaction, followed by the remaining components as detailed in the assay protocol listed above. The reaction was initiated by the addition of the MgATP mix. […] (specific activity approx. 500 cpm/pmol, concentration as required) and variable test article concentrations. […] The reaction was stopped by the addition of 3% phosphoric acid solution. 10 μL of the reaction is then spotted onto a P30 filtermat and washed three times for 5 minutes in 75 mM phosphoric acid and once in methanol prior to drying and scintillation counting. In addition positive control wells contain all components of the reaction, except the compound of interest; however, DMSO (at a final concentration of 2%) were included in these wells to control for solvent effects as well as blank wells contain all components of the reaction, with a reference inhibitor replacing the compound of interest. This abolishes kinase activity and establishes the base-line (0% kinase activity remaining). […]

[3] = intravenous 3 mg/kg, read-out: Intravenous AUC
[4] = oral 10 mg/kg, read-out: Oral AUC

Sequence of EGFR (P00533 25-1210): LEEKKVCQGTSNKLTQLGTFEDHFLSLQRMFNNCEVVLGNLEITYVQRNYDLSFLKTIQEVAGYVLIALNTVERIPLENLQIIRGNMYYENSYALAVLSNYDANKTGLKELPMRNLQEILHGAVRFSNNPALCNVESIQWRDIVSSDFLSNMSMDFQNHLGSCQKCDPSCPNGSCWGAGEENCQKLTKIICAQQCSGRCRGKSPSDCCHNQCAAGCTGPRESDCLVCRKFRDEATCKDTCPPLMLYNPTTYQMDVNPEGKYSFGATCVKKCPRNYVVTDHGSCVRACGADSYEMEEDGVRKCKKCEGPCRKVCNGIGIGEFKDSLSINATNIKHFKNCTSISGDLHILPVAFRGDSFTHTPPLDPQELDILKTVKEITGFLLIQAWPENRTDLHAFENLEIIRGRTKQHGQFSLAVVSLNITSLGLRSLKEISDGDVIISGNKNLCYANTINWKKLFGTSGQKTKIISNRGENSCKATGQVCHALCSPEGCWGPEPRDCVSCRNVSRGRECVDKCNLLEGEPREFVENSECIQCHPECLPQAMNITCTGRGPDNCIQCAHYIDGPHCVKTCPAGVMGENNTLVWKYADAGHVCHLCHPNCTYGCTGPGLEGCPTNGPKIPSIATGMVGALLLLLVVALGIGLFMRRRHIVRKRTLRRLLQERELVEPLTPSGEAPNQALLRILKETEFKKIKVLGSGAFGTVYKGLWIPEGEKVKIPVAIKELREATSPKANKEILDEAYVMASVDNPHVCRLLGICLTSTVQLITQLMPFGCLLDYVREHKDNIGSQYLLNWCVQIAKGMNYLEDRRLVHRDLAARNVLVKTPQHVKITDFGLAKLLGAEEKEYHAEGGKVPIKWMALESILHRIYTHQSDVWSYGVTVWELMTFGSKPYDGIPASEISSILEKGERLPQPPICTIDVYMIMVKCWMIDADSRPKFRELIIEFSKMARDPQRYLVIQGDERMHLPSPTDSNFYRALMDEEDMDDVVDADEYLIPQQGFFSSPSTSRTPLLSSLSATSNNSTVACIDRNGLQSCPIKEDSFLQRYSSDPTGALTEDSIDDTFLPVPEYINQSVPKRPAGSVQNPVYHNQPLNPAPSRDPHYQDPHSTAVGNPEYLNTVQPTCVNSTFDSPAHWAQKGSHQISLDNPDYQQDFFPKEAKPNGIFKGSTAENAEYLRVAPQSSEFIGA

Row | Structure (SMILES) | AUC [1, 3] | bioavailability [1] | Cmax ([1]; oral 10 mg/kg) | AUC [1, 4] | Effect on TMD-8 xenograft tumor growth [2] | IC50 (EGFR)
1 | CC#CC(=O)N[C@H]1C[C@@H](n2nc(-c3ccc(Oc4ccccc4)cc3)c3c(N)ncnc32)C1 [Compound 1] | 841 ng·h/mL | 52% | 1280 ng/mL | 1450 ng·h/mL | reduce growth of TMD-8 xenograft B-cell lymphoma; also recorded: reduce tumor growth | > 1000 nM
2 | C=CC(=O)N[C@H]1C[C@@H](n2nc(-c3ccc(Oc4ccccc4)cc3)c3c(N)ncnc32)C1 [Compound 2] | 954 ng·h/mL | 45% | 1350 ng/mL | 1440 ng·h/mL | reduce growth of TMD-8 xenograft B-cell lymphoma; also recorded: reduce tumor growth | > 1000 nM
